Data published in patent US20220041588A1, “SUBSTITUTED IMIDAZO[1,2-A]PYRIDINE AND [1,2,4]TRIAZOLO[1,5-A]PYRIDINE COMPOUNDS AS RET KINASE INHIBITORS” (FOCHON PHARMACEUTICALS, LTD., priority 2018, published 2022).

System: TT (RET C634W) cells
Test: Cell proliferation assay (MTS), TT cells
Format: cell-based
Conditions: Homo sapiens, TT, 72 h, 72 h incubation, MTS readout
Procedure: MTS testing kit was purchased from Promega. The RPMI-1640, F12, F12K, Fetal bovine serum and Penicillin-Streptomycin were purchased from BI. Glutamine and Dimethyl sulfoxide (DMSO) were purchased from Sigma. TT cells were cultured in F12K supplemented with 10% FBS and LC-2/ad cells were cultured in HamF12: RPMI1640 (1:1) supplemented with 10% FBS and 2 mM Glutamine.
To investigate whether a compound is able to inhibit the activity of RET fusion and/or mutation in cells, a mechanism-based assay using TT (RET C634W) and LC-2/ad (CCDCl6-RET) cell lines was developed. In this assay, the inhibition of RET fusion and/or mutation was reflected by the inhibition of cell proliferation of TT and LC-2/ad cells. Cells were plated into 96-well plates at the optimized cell density (TT: 5000 cells/well; LC-2/ad: 5000 cells/well). Plates were incubated at 37° C., with 5% CO2 for 24 h. Compounds were serially diluted and added to the plates with the final concentrations as 10000, 3333.3, 1111.1, […], 123.5, 41.2, 13.7, 4.6 and 1.5 nM. Plates were incubated at 37° C., with 5% CO2 for 72 h. An aliquot of 20 μL MTS/100 μL medium mixture solution were added to each well and the plates were incubated for exactly 2 h. The reaction was stopped by adding 25 μL 10% SDS to each well. The absorbance was measured by a microplate reader at 490 nm and 650 nm (reference wavelength). IC50 was calculated using GraphPad Prism 5.0.

Compound | IC50 [nM]
N#Cc1cnc2cc(OCC3(O)CC3)cc(-c3ccc(N4CCC(Oc5ccc(C6CC6)nc5)CC4)nc3)n12 [Example 76, 5-(6-(4-((6-cyclopropylpyridin-3-yl)oxy)piperidin-1-yl)pyridin-3-yl)-7-((1-hydroxy-cyclopropyl)methoxy)imidazo[1,2-a]pyr-idine-3-carbonitrile] | 5
COc1ccc(OC2CN(c3ccc(-c4cc(OCC(C)(C)O)cc5ncc(C#N)n45)cn3)C2)cn1 [Example 93, 7-(2-hydroxy-2-methylpropoxy)-5-(6-(3-((6-methoxypyridin-3-yl)oxy)azetidin-1-yl)pyridin-3-yl)imidazo[1,2-a]pyridine-3-carbonitrile] | 39
COc1ccc(O[C@H]2CCN(c3ccc(-c4cc(OCC(C)(C)O)cc5ncc(C#N)n45)cn3)C2)cn1 [Example 89, (S)-7-(2-hydroxy-2-methylpropoxy)-5-(6-(3-((6-methoxypyridin-3-yl)oxy)pyrrolidin-1-yl)pyridin-3-yl)imidazo[1,2-a]pyridine-3-carbonitrile] | 45
Cn1cc(-c2cc(-c3ccc(N4CCN(Cc5ccc6ncn(C)c6c5)CC4)nc3)n3c(C#N)cnc3c2)cn1 [Example 36, 5-(6-(4-((1-methyl-1H-benzo[d]imid-azol-6-yl)methyl)piperazin-1-yl)pyri-din-3-yl)-7-(1-methyl-1H-pyrazol-4-yl)imidazo[1,2-a]pyridine-3-carboni-trile] | 62
CCOc1ccc(OC2CCN(c3ccc(-c4cc(OCC5(O)CC5)cc5ncc(C#N)n45)cn3)CC2)cn1 [Example 79, 5-(6-(4-((6-ethoxypyridin-3-yl)oxy)piperi-din-1-yl)pyridin-3-yl)-7-((1-hydroxycyclo-propyl)methoxy)imidazo[1,2-a]pyridine-3-carbonitrile] | 1
CC(C)(O)COc1cc(-c2ccc(N3CCC(Oc4ccc(OC5CC5)nc4)CC3)nc2)n2c(C#N)cnc2c1 [Example 84, 5-(6-(4-((6-cyclopropoxypyridin-3-yl)oxy)piperidin-1-yl)pyridin-3-yl)-7-(2-hydroxy-2-methylpropoxy)imidazo[1,2-a]pyri-dine-3-carbonitrile] | 21
Cn1cc(-c2cc(-c3ccc(N4CCN(Cc5cc(F)ccc5F)CC4)nc3)n3c(C#N)cnc3c2)cn1 [Example 8, 5-(6-(4-(2,5-difluorobenzyl)piperazin-1-yl)pyridin-3-yl)-7-(1-methyl-1H-pyrazol-4-yl)imidazo[1,2-a]pyridine-3-carbonitrile] | 39
CCc1ccc(OC2CCN(c3ccc(-c4cc(OCC(C)(C)O)cc5ncc(C#N)n45)cn3)CC2)cn1 [Example 73, 5-(6-(4-((6-ethylpyridin-3-yl)oxy)piperidin-1-yl)pyridin-3-yl)-7-(2-hydroxy-2-meth-ylpropoxy)imidazo[1,2-a]pyridine-3-car-bonitrile] | 1
C[C@@H](C(=O)N1CCN(c2ccc(-c3cc(-c4cnn(C)c4)cc4ncc(C#N)n34)cn2)CC1)c1ccccc1 [Example 10, (R)-7-(1-methyl-1H-pyrazol-4-yl)-5-(6-(4-(2-phenylpropanoyl)piperazin-1-yl)pyridin-3-yl)imidazo[1,2-a]pyri-dine-3-carbonitrile] | 6
COc1ccc(OC2CCN(c3ccc(-c4cc(OCCN=S(C)(C)=O)cc5ncc(C#N)n45)cn3)CC2)cn1 [Example 70, 7-(2-((dimethyl(oxo)-λ^6-sulfanylidene)ami-no)ethoxy)-5-(6-(4-((6-methoxypyridin-3-yl)oxy)piperidin-1-yl)pyridin-3-yl)imid-azo[1,2-a]pyridine-3-carbonitrile] | 71
CN(C)C(C(=O)N1CCN(c2ccc(-c3cc(-c4cnn(C)c4)cc4ncc(C#N)n34)cn2)CC1)c1ccc(F)c(Cl)c1 (stereo not shown) [Example 41, 5-(6-(4-(2-(3-chloro-4-fluorophenyl)-2-(dimethylamino)acetyl)piperazin-1-yl)pyridin-3-yl)-7-(1-methyl-1H-pyrazol-4-yl)imidazo[1,2-a]pyridine-3-carbonitrile] | 12
CN(C)[C@@H](C(=O)N1CCN(c2ccc(-c3cc(-c4cnn(C)c4)cc4ncc(C#N)n34)cn2)CC1)c1cccc(Cl)c1 [Example 39, (R)-5-(6-(4-(2-(3-chlorophenyl)-2-(dimethylamino)acetyl)piperazin-1-yl)pyridin-3-yl)-7-(1-methyl-1H-pyrazol-4-yl)imidazo[1,2-a]pyridine-3-car-bonitrile] | 39
COc1ccc(OC2CN(c3ccc(-c4cc(OCC5(O)CC5)cc5ncc(C#N)n45)cn3)C2)cn1 [Example 92, 7-((1-hydroxycyclopropyl)methoxy)-5-(6-(3-((6-methoxypyridin-3-yl)oxy)azetidin-1-yl)pyridin-3-yl)imidazo[1,2-a]pyridine-3-carbonitrile] | 87
CC(C)(O)COc1cc(-c2ccc(N3CCC(Oc4ccc(C(F)F)nc4)CC3)nc2)n2c(C#N)cnc2c1 [Example 77, 5-(6-(4-((6-(difluoromethyl)pyridin-3-yl)oxy)piperidin-1-yl)pyridin-3-yl)-7-(2-hy-droxy-2-methylpropoxy)imidazo[1,2-a]pyr-idine-3-carbonitrile] | 48
CC(C)(O)COc1cc(-c2ccc(N3CCC(Oc4ccc(C5CC5)nc4)CC3)nc2)n2c(C#N)cnc2c1 [Example 72, 5-(6-(4-((6-cyclopropylpyridin-3-yl)oxy)piperidin-1-yl)pyridin-3-yl)-7-(2-hydroxy-2-methylpropoxy)imidazo[1,2-a]pyridine-3-carbonitrile] | 17
Cc1cccnc1CN1CCN(c2ccc(-c3cc(-c4cnn(C)c4)cc4ncc(C#N)n34)cn2)CC1 [Example 9, 7-(1-methyl-1H-pyrazol-4-yl)-5-(6-(4-((3-methylpyridin-2-yl)methyl)pi-perazin-1-yl)pyridin-3-yl)imidazo[1,2-a]pyridine-3-carbonitrile] | 79
Cc1ccc(CC(=O)N2CCN(c3ccc(-c4cc(-c5cnn(C)c5)cc5ncc(C#N)n45)cn3)CC2)nc1 [Example 47, 7-(1-methyl-1H-pyrazol-4-yl)-5-(6-(4-(2-(5-methylpyridin-2-yl)acetyl)pi-perazin-1-yl)pyridin-3-yl)imidazo[1,2-a]pyridine-3-carbonitrile] | 88
Cc1ccc(OC2CCN(c3ccc(-c4cc(OCC(C)(C)O)cc5ncc(C#N)n45)cn3)CC2)cn1 [Example 71, 7-(2-hydroxy-2-methylpropoxy)-5-(6-(4-((6-methylpyridin-3-yl)oxy)piperidin-1-yl)pyridin-3-yl)imidazo[1,2-a]pyridine-3-carbonitrile] | 22
COc1ncc(OC2CCN(c3ccc(-c4cc(OCC5(O)CC5)cc5ncc(C#N)n45)cn3)CC2)cc1F [Example 87, 5-(6-(4-((5-fluoro-6-methoxypyridin-3-yl)oxy)piperidin-1-yl)pyridin-3-yl)-7-((1-hydroxycyclopropyl)methoxy)imidazo[1,2-a]pyridine-3-carbonitrile] | 38
[2H]C([2H])([2H])Oc1ccc(OC2CCN(c3ccc(-c4cc(OCC(C)(C)O)cc5ncc(C#N)n45)cn3)CC2)cn1 [Example 61, 7-(2-Hydroxy-2-methylpropoxy)-5-(6-(4-((6-(methoxy-d3)pyridin-3-yl)oxy)piperidin-1-yl)pyridin-3-yl)imidazo[1,2-a]pyridine-3-carbonitrile] | 15
COc1ccc(O[C@H]2CCN(c3ccc(-c4cc(OCC5(O)CC5)cc5ncc(C#N)n45)cn3)C2)cn1 [Example 90, (S)-7-((1-hydroxycyclopropyl)methoxy)-5-(6-(3-((6-methoxypyridin-3-yl)oxy)pyr-rolidin-1-yl)pyridin-3-yl)imidazo[1,2-a] pyridine-3-carbonitrile] | 13
C=Cc1ccc(OC2CCN(c3ccc(-c4cc(OCC(C)(C)O)cc5ncc(C#N)n45)cn3)CC2)cn1 [Example 82, 7-(2-hydroxy-2-methylpropoxy)-5-(6-(4-((6-vinylpyridin-3-yl)oxy)piperidin-1-yl)pyridin-3-yl)imidazo[1,2-a]pyridine-3-car-bonitrile] | 15
CCc1ccc(OC2CCN(c3ccc(-c4cc(OCC5(O)CC5)cc5ncc(C#N)n45)cn3)CC2)cn1 [Example 75, 5-(6-(4-((6-ethylpyridin-3-yl)oxy)piperidin-1-yl)pyridin-3-yl)-7-((1-hydroxycyclo-propyl)methoxy)imidazo[1,2-a]pyridine-3-carbonitrile] | 1
C=Cc1ccc(OC2CCN(c3ccc(-c4cc(OCC5(O)CC5)cc5ncc(C#N)n45)cn3)CC2)cn1 [Example 83, 7-((1-hydroxycyclopropyl)methoxy)-5-(6-(4-((6-vinylpyridin-3-yl)oxy)piperidin-1-yl)pyridin-3-yl)imidazo[1,2-a]pyridine-3-carbonitrile] | 17
COc1ccc(CN2C3CC2CN(c2ccc(-c4cc(OCCN=S(C)(C)=O)cc5ncc(C#N)n45)cn2)C3)cn1 [Example 58, 7-(2-((Dimethyl(oxo)-λ^6-sulfanylidene)amino)ethoxy)-5-(6-(6-((6-methoxypyridin-3-yl)methyl)-3,6-diazabicyclo[3.1.1]heptan-3-yl)pyridin-3-yl)imidazo[1,2-a]pyridine-3-carbonitrile] | 120
